From DBAASP
≈ marks a conversion by molar mass, not a printed value. Where “and” joins values, the source holds several entries; their conditions need not be identical. Equal entries are not always repeated.

How the values were obtained:
Experiment in all cases: ≥ marks a high value that may be exact or a test limit, other limits are often not marked, values filed in µg/mL are converted to µM
Escherichia coli = test system: Escherichia coli
Pseudomonas aeruginosa = test system: Pseudomonas aeruginosa
[1] = test system: Staphylococcus aureus ATCC 25923
[2] = test system: Escherichia coli ATCC 25922
[3] = test system: Pseudomonas aeruginosa ATCC 27853
[4] = test system: Salmonella typhimurium KCTC 1926
[5] = test system: Staphylococcus aureus ATCC 29213
[6] = test system: Staphylococcus epidermidis ATCC 12228
Staphylococcus aureus = test system: Staphylococcus aureus
[7] = test system: Candida albicans ATCC 90028

MIC (Escherichia coli) [µM] | MIC [2] | MIC [3] [µM] | MIC [5] [µM] | Structure (SMILES) | other results
 | 14.4 µM (≈ 16 µg/mL) | 14.4 (≈ 16 µg/mL) | > 57.5 | CC[C@H](C)[C@H](NC(=O)[C@H](CCCCN)NC(=O)[C@H](CCCCN)NC(=O)[C@@H](N)CCC(N)=O)C(=O)N[C@@H](CCCN=C(N)N)C(=O)N[C@H](C(=O)N[C@@H](C)C(=O)N[C@@H](CC(C)C)C(=O)N[C@@H](CO)C(=O)N[C@@H](C)C(=O)O)C(C)C [QKKIRVALSA] | 
 | 5 µM (≈ 8.54 µg/mL) |  | > 40 | CC[C@H](C)[C@H](NC(=O)[C@H](CCCN=C(N)N)NC(=O)[C@H](CCC(N)=O)NC(=O)[C@H](CO)NC(=O)[C@@H](NC(=O)[C@H](CCCN=C(N)N)NC(=O)[C@H](CCCCN)NC(=O)[C@@H](N)Cc1ccccc1)[C@@H](C)CC)C(=O)N[C@@H](CCCCN)C(=O)N[C@@H](CC(=O)O)C(=O)N[C@@H](Cc1ccccc1)C(=O)N[C@@H](CC(C)C)C(=O)N[C@@H](CCCN=C(N)N)C(=O)O [FKRISQRIKDFLR] | 
 | 4 µM and 8 µM | 4 (≈ 6.89 µg/mL) | 1 (≈ 1.72 µg/mL) | CC[C@H](C)[C@H](N)C(=O)N[C@@H](Cc1c[nH]c2ccccc12)C(=O)N[C@@H](CCCN=C(N)N)C(=O)N[C@H](C(=O)N[C@@H](Cc1ccccc1)C(=O)N[C@@H](CCCN=C(N)N)C(=O)N[C@@H](CCCN=C(N)N)C(=O)N[C@H](C(=O)N[C@@H](Cc1ccccc1)C(=O)N[C@@H](CCCN=C(N)N)C(=O)N[C@H](C(=O)N[C@@H](Cc1ccccc1)C(N)=O)[C@@H](C)CC)[C@@H](C)CC)[C@@H](C)CC [IWRIFRRIFRIF] | MIC [6]: 2 µM (≈ 3.44 µg/mL)
2.3 (≈ 5.93 µg/mL) |  |  |  | CC[C@H](C)[C@H](NC(=O)CN)C(=O)NCC(=O)N[C@@H](CCCCN)C(=O)N[C@@H](Cc1ccccc1)C(=O)N[C@H](C(=O)N[C@@H](Cc1cnc[nH]1)C(=O)N[C@@H](CO)C(=O)N[C@H](C(=O)N[C@@H](CCCCN)C(=O)N[C@@H](CCCCN)C(=O)N[C@@H](Cc1c[nH]c2ccccc12)C(=O)NCC(=O)N[C@@H](CCCCN)C(=O)N[C@H](C(=O)N[C@@H](Cc1ccccc1)C(=O)N[C@H](C(=O)NCC(=O)N[C@@H](CCC(=O)O)C(=O)N[C@H](C(=O)N[C@@H](CCSC)C(=O)N[C@@H](CC(N)=O)C(=O)N[C@@H](CO)C(N)=O)[C@@H](C)CC)[C@@H](C)CC)[C@@H](C)O)C(C)C)[C@@H](C)CC [GIGKFIHSVKKWGKTFIGEIMNS] | MIC (Pseudomonas aeruginosa): 18 µM (≈ 46.4 µg/mL); MIC (Staphylococcus aureus): 18 µM (≈ 46.4 µg/mL)
 | 2.5 µM (≈ 3.64 µg/mL) | 5 (≈ 7.29 µg/mL) | 10 (≈ 14.6 µg/mL) | CC[C@H](C)[C@H](NC(=O)[C@H](CCCN=C(N)N)NC(=O)[C@H](CCC(N)=O)NC(=O)[C@H](C)NC(=O)[C@H](C)NC(=O)[C@H](CCCN=C(N)N)NC(=O)[C@@H](N)CCCCN)C(=O)N[C@@H](CCCCN)C(=O)N[C@@H](C)C(=O)N[C@@H](Cc1ccccc1)C(=O)N[C@@H](CC(C)C)C(=O)N[C@@H](CCCN=C(N)N)C(=O)O [KRAAQRIKAFLR] | MIC [7]: ≥ 40 µM
 | 5 µM (≈ 7.72 µg/mL) | 5 (≈ 7.72 µg/mL) | 10 (≈ 15.4 µg/mL) | CC[C@H](C)[C@H](NC(=O)[C@H](CCCN=C(N)N)NC(=O)[C@H](CCC(N)=O)NC(=O)[C@@H](NC(=O)[C@@H](NC(=O)[C@H](CCCN=C(N)N)NC(=O)[C@@H](N)CCCCN)[C@@H](C)CC)C(C)C)C(=O)N[C@@H](CCCCN)C(=O)N[C@@H](CC(=O)O)C(=O)N[C@@H](Cc1ccccc1)C(=O)N[C@@H](CC(C)C)C(=O)N[C@@H](CCCCN)C(=O)O [KRIVQRIKDFLK] | MIC [7]: 10 µM (≈ 15.4 µg/mL)
 | 128 µM (≈ 114 µg/mL) | 128 (≈ 114 µg/mL) | 128 (≈ 114 µg/mL) | CC[C@H](C)[C@H](N)C(=O)N[C@@H](Cc1c[nH]c2ccccc12)C(=O)N[C@@H](CCCN=C(N)N)C(=O)N[C@H](C(=O)N[C@@H](Cc1ccccc1)C(=O)N[C@@H](CCCN=C(N)N)C(N)=O)[C@@H](C)CC [IWRIFR] | MIC [6]: 64 µM (≈ 56.9 µg/mL)

Further lines, the compound ahead of its results:

Structure (SMILES) | MIC (Escherichia coli) [µM] | MIC [2] | MIC [3] [µM] | MIC [5] [µM] | other results
CC[C@H](C)[C@H](NC(=O)CN)C(=O)NCC(=O)N[C@@H](C)C(=O)N[C@H](C(=O)N[C@@H](CC(C)C)C(=O)N[C@@H](CCCCN)C(=O)N[C@H](C(=O)N[C@@H](CC(C)C)C(=O)N[C@H](C(=O)N[C@H](C(=O)NCC(=O)N[C@@H](CC(C)C)C(=O)N1CCC[C@H]1C(=O)N[C@@H](C)C(=O)N[C@@H](CC(C)C)C(=O)N[C@H](C(=O)N[C@@H](CCCCN)C(=O)N[C@@H](CCCN=C(N)N)C(=O)N[C@@H](CCCCN)C(=O)N[C@@H](CCCN=C(N)N)C(=O)N[C@@H](CCC(N)=O)C(=O)N[C@@H](CCC(N)=O)C(=O)O)[C@@H](C)CC)[C@@H](C)O)[C@@H](C)O)C(C)C)C(C)C [GIGAVLKVLTTGLPALIKRKRQQ] | 0.359 (≈ 0.884 µg/mL) | 1.02 µM (≈ 2.5 µg/mL) | 2.03 (≈ 5 µg/mL) |  | MIC (Pseudomonas aeruginosa): 1.44 µM (≈ 3.54 µg/mL); MIC [1]: 0.0508 µM (≈ 0.125 µg/mL)
CC[C@H](C)[C@H](NC(=O)[C@@H](NC(=O)[C@@H](NC(=O)[C@H](CCCN=C(N)N)NC(=O)[C@@H](NC(=O)[C@@H](NC(=O)[C@H](CC(C)C)NC(=O)[C@@H]1CCCN1C(=O)[C@H](Cc1c[nH]c2ccccc12)NC(=O)[C@@H](NC(=O)[C@H](CCCN=C(N)N)NC(=O)[C@H](CCCCN)NC(=O)[C@@H](NC(=O)[C@@H](N)CCCN=C(N)N)C(C)C)C(C)C)C(C)C)[C@@H](C)CC)[C@@H](C)O)C(C)C)C(=O)N[C@@H](C)C(=O)NCC(=O)N[C@@H](Cc1ccc(O)cc1)C(=O)N[C@@H](CC(N)=O)C(=O)N[C@@H](CC(C)C)C(=O)O [RVKRVWPLVIRTVIAGYNL] |  |  |  |  | MIC [4]: ≥ 32 µM
CC[C@H](C)[C@H](NC(=O)CNC(=O)[C@H](CC(C)C)NC(=O)[C@@H](NC(=O)[C@@H](N)Cc1ccc(O)cc1)[C@@H](C)O)C(=O)N[C@@H](CCCCN)C(=O)N[C@H](C(=O)N[C@@H](CC(C)C)C(=O)N[C@@H](Cc1c[nH]c2ccccc12)C(=O)N[C@@H](CO)C(=O)N[C@@H](C)C(=O)N[C@@H](Cc1ccc(O)cc1)C(=O)N[C@@H](CCCCN)C(=O)N[C@@H](Cc1cnc[nH]1)C(=O)N[C@@H](CCCN=C(N)N)C(=O)N[C@@H](CCCCN)C(=O)N[C@H](C(=O)N[C@H](C(=O)N[C@@H](CCC(=O)O)C(=O)N[C@@H](CCCCN)C(=O)N[C@@H](CO)C(=O)N[C@@H](Cc1ccccc1)C(=O)N[C@@H](CC(N)=O)C(=O)N[C@@H](CCCCN)C(=O)NCC(=O)N[C@@H](Cc1ccccc1)C(=O)N[C@@H](Cc1ccc(O)cc1)C(=O)N[C@@H](Cc1cnc[nH]1)C(=O)O)[C@@H](C)CC)[C@@H](C)O)[C@@H](C)CC [YTLGIKILWSAYKHRKTIEKSFNKGFYH] |  |  |  |  | MIC [6]: 50 µM (≈ 172 µg/mL)
CC[C@H](C)[C@H](NC(=O)[C@H](CCCCN)NC(=O)[C@H](CC(C)C)NC(=O)[C@H](C)NC(=O)[C@H](C)NC(=O)[C@H](CCCCN)NC(=O)[C@H](CC(C)C)NC(=O)[C@H](C)NC(=O)[C@H](CCCCN)NC(=O)CNC(=O)[C@H](CC(C)C)NC(=O)[C@H](Cc1ccccc1)NC(=O)[C@H](CO)NC(=O)CNC(=O)[C@H](Cc1ccccc1)NC(=O)CN)C(=O)NCC(=O)N[C@@H](C)C(=O)N[C@@H](CC(N)=O)C(=O)N[C@H](C(=O)N[C@@H](CC(C)C)C(=O)NCC(=O)NCC(=O)N[C@@H](C)C(=O)N1CCC[C@H]1C(=O)N[C@@H](CCC(=O)O)C(=O)N[C@@H](CCC(N)=O)C(=O)O)C(C)C [GFGSFLGKALKAALKIGANVLGGAPEQ] | 25 (≈ 65.4 µg/mL) |  |  |  | MIC (Staphylococcus aureus): 6 µM (≈ 15.7 µg/mL)
CC(=O)N[C@@H](CCCCN)C(=O)N[C@@H](CC(C)C)C(=O)N[C@@H](CC(C)C)C(=O)N[C@@H](CCCCN)C(=O)N[C@@H](CC(C)C)C(=O)N1CCC[C@H]1C(=O)N[C@@H](CCCCN)C(=O)N[C@@H](CCCCN)C(=O)N[C@@H](CC(C)C)C(=O)N[C@@H](CC(C)C)C(=O)N[C@@H](CCCCN)C(=O)N[C@@H](CC(C)C)C(=O)N[C@@H](CC(C)C)C(=O)N[C@@H](CCCCN)C(N)=O [KLLKLPKKLLKLLK] |  | > 80 µM |  | > 80 | 
CC[C@H](C)[C@H](NC(=O)CN)C(=O)NCC(=O)N[C@@H](CO)C(=O)N[C@@H](C)C(=O)N[C@@H](CC(C)C)C(=O)N[C@@H](C)C(=O)N[C@@H](CCCCN)C(=O)N[C@@H](C)C(=O)N[C@@H](C)C(=O)N[C@@H](CCCCN)C(=O)N[C@@H](CC(C)C)C(=O)N[C@H](C(=O)N[C@@H](C)C(=O)NCC(=O)N[C@H](C(=O)N[C@H](C(N)=O)C(C)C)[C@@H](C)CC)C(C)C [GIGSALAKAAKLVAGIV] | 50 (≈ 76.9 µg/mL) |  |  |  | MIC (Staphylococcus aureus): 12.5 µM (≈ 19.2 µg/mL)
CC(C)C[C@H](NC(=O)[C@H](C)NC(=O)[C@H](CC(C)C)NC(=O)[C@@H](N)CCCCN)C(=O)N[C@@H](CCCCN)C(=O)N[C@@H](C)C(=O)N[C@@H](C)C(=O)N[C@@H](C)C(=O)N[C@@H](CCCCN)C(=O)N[C@@H](C)C(=O)N[C@@H](Cc1c[nH]c2ccccc12)C(=O)N[C@@H](CCCCN)C(=O)N[C@@H](C)C(=O)N[C@@H](C)C(=O)N[C@@H](C)C(=O)N[C@@H](CCCCN)C(=O)N[C@@H](C)C(=O)N[C@@H](C)C(N)=O [KLALKAAAKAWKAAAKAA] | 91 (≈ 162 µg/mL) |  |  |  | MIC (Pseudomonas aeruginosa): > 91 µM; MIC (Staphylococcus aureus): > 91 µM
CC(C)C[C@H](NC(=O)[C@H](CCCCN)NC(=O)[C@H](CC(C)C)NC(=O)[C@H](CC(C)C)NC(=O)[C@H](CCCCN)NC(=O)[C@H](CCCCN)NC(=O)[C@H](Cc1cnc[nH]1)NC(=O)[C@H](CC(C)C)NC(=O)[C@H](CCCCN)NC(=O)[C@H](CC(C)C)NC(=O)[C@H](CC(C)C)NC(=O)[C@H](CCCCN)NC(=O)[C@H](CCCCN)NC(=O)[C@@H](N)CC(C)C)C(=O)N[C@@H](C)C(=O)NCC(=O)O [LKKLLKLHKKLLKLAG] |  | 2.5 µM (≈ 4.61 µg/mL) |  | > 40 | 
